Where two headings read alike, the source gives them in different places.
Tests used:
[1] = tested on: murine BCR-ABL+ Arf-/- B-ALL (mB-ALL); conditions: for survival: once weekly from day 7, MTX 0.75 mg/kg, αGAL-9 Ab 1.5 mg/kg
Experimental: Lean and obese mice were inoculated intravenously with murine Bcr-Abl+ Arf-/- B-ALL cells (mB-ALL). On day 7 post-inoculation, when GFP+ leukemic blasts were detected in the peripheral blood, treatment with DMSO (Vehicle, n=10), 0.75 mg/kg methotrexate (MTX, n=10), 1.5 mg/kg anti-galectin-9 antibody (αGAL-9 Ab, n=10), or (MTX + αGAL-9 Ab) a combined was initiated. Treatments were administered once weekly. Survival was monitored and significance was determined using the log-rank test with “A” representing a statistically significant difference between vehicle and MTX-treated mice, “B” between vehicle and anti-Gal-9 treated groups, and “C” between vehicle and MTX + anti-Gal-9 treated mice.
A murine BCR-ABL+ Arf-/- B-ALL (mB-ALL) model was used to test whether treatment with anti-GAL-9 antibody could be used as a therapy to treat obese mice with B-ALL. […] C57BL/6 mice were maintained on lean and high-fat diets as previously described and then challenged with mB-ALL. Treatment with vehicle, MTX, anti-GAL-9 antibody, or a combination of MTX and anti-GAL-9 antibody was initiated on day 7 after leukemia inoculation, when GFP+ B-ALL cells were detected in the peripheral blood.

[2] = tested on: mB-ALL cell cultures; test: ACM-induced chemoresistance in mB-ALL cell cultures; format: cell-based, murine
[3] = tested on: human B-ALL cell lines; test: Annexin-V/PI cell death of human B-ALL cell lines pre-conditioned with RPMI, SCM or ACM
Experimental: Human B-ALL cell lines (Nalm6, REH,) were cultured for 24 hours in unconditioned medium (RPMI), stromal cell-conditioned medium (SCM), or adipocyte-conditioned medium (ACM) and then treated with anti-GAL-9 antibody (αGAL-9 Ab) or an IgG control antibody (IgG ctrl) for an additional 2 days with or without MTX. The percentage of apoptotic and dead cells on day 3 of culture was determined using Annexin-V/ PI staining followed by flow cytometric analysis.
Thus, additional experiments were performed to determine how adipocyte-conditioned medium (ACM)-exposed B-ALL cells responded to chemotherapy treatment. In obese patients, leukemia cells would be exposed to an adipocyte-rich microenvironment prior to chemotherapy administration. To mimic this scenario in vitro, human B-ALL cell lines were pre-treated for 24 hours with unconditioned medium (RPMI), stromal cell-conditioned medium (SCM), or ACM prior to the addition of methotrexate (MTX) for 2 days.

| Compound | survival ([1]; lean mice) | weight loss ([1]; obese mice) | survival ([1]; obese mice) | chemoresistance induced by ACM [2] | decrease of MTX-induced cell death ([3]; cultures pre-treated with ACM) | MTX-induced cell death, effect of pre-conditioning ([3]; pre-conditioning with SCM) | resistance induced by exposure to ACM [3] |
| --- | --- | --- | --- | --- | --- | --- | --- |
| CN(Cc1cnc2nc(N)nc(N)c2n1)c1ccc(C(=O)N[C@@H](CCC(=O)O)C(=O)O)cc1 [MTX, methotrexate] | significantly extended the survival | loss substantial weight | not significantly protected | induced chemoresistance | 40-70% | not impacted | – |
| CC[C@]1(O)C[C@H]2CN(CCc3c([nH]c4ccccc34)[C@@](C(=O)OC)(c3cc4c(cc3OC)N(C=O)[C@H]3[C@@](O)(C(=O)OC)[C@H](OC(C)=O)[C@]5(CC)C=CCN6CC[C@]43[C@@H]65)C2)C1 [vincristine] | – | – | – | – | – | – | induced resistance |
| COc1cccc2c1C(=O)c1c(O)c3c(c(O)c1C2=O)C[C@@](O)(C(=O)CO)C[C@@H]3O[C@H]1C[C@H](N)[C@H](O)[C@H](C)O1 [doxorubicin] | – | – | – | induced chemoresistance | – | – | induced resistance |
